Values of other authors in patent US12441685B2, “Compounds and methods for treating cancer” (DANA-FARBER CANCER INSTITUTE, INC., priority 2015, dated 2025).

Conditions: Phase II study, patients with NBCCS (Tang et al., 2012)

In the case of `CS(=O)(=O)c1ccc(C(=O)Nc2ccc(Cl)c(-c3ccccn3)c2)c(Cl)c1` [vismodegib], the “participants who ceased treatment due to serious adverse effects” value is given as 14 of 26.
